# Calls of active or inactive are those of the source.
# Key:
# [1] = target: T1, Voltage-gated N-type calcium channel alpha-1B subunit/Amyloid beta A4 precursor protein-binding family A member 1 (Homo sapiens, UniProt Q00975+Q02410); type: protein assay
# [2] = target: T1, Voltage-gated N-type calcium channel alpha-1B subunit/Amyloid beta A4 precursor protein-binding family A member 1; type: protein assay; remark: listed apart in the source
# Prothrombin = Prothrombin (Homo sapiens, UniProt P00734); assay: Thrombin 1536 HTS Dose Response Confirmation. [Related pubchem assays: 1046 (Thrombin 1536 HTS; hits were confirmed in this assay)]; type: functional
# Coagulation factor XII = target: T2, Coagulation factor XII (Homo sapiens, UniProt P00748); type: functional;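 note: activated factor XIIa alpha cleaving a fluorogenic AMC peptide substrate; inhibitor potency from loss of enzyme activity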
# T2 sequence (P00748 whole entry): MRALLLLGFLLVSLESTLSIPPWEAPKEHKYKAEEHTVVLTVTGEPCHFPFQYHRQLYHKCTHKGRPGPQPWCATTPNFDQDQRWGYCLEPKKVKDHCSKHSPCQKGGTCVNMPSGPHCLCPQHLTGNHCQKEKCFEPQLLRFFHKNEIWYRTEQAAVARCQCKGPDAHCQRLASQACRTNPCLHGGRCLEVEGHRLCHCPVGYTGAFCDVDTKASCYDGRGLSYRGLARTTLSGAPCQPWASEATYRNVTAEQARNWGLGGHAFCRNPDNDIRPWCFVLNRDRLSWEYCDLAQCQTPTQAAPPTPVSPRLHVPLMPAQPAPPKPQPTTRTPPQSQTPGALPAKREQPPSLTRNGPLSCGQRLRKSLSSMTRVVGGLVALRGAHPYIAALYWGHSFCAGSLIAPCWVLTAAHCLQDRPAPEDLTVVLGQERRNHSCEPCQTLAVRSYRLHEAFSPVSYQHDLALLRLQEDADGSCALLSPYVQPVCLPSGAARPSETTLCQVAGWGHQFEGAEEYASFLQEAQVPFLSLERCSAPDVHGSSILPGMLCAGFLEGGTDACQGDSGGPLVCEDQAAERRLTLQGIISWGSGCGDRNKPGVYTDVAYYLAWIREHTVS
# Paired box protein Pax-8 = Paired box protein Pax-8 (Homo sapiens, UniProt Q06710); assay: PAX8 transcriptional activity inhibition in RMG-I – RMG-I cells, luciferase, cherry-pick, dose response (AID 687027); type: functional, cell-based;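 note: luciferase reporter driven by Pax8 target thyroperoxidase promoter measured by SteadyGlo luminescence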
# Paired box protein Pax-8, sequence (Q06710 whole entry): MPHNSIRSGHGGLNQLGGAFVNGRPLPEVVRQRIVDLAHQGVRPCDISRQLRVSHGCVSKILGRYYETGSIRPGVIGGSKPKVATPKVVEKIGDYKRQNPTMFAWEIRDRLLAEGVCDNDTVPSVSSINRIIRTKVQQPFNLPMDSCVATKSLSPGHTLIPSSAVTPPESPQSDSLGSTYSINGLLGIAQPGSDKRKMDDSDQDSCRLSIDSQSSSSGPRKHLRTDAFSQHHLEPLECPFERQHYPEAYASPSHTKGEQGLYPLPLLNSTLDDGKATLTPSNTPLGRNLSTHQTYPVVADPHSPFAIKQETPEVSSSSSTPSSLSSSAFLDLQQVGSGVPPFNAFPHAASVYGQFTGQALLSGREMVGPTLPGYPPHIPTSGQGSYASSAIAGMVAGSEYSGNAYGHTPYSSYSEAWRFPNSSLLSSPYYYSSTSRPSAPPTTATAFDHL
# [3] = IGROV1 cell killing – plate reader, dry powder samples, PAX8 inhibitor project, dose response (AID 743043); type: functional, cell-based; conditions: IGROV-1
# [4] = OVCAR8 cell viability loss – plate reader, dry powder samples, PAX8 project, dose response (AID 743197); type: functional, cell-based; conditions: OVCAR-8
# [5] = target: Voltage-dependent T-type calcium channel subunit alpha-1H (Homo sapiens, UniProt O95180); type: functional;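 note: channel activity triggered by adding a high calcium stimulation buffer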
# [6] = target: T3, Polyadenylate-binding protein 1 (Homo sapiens, UniProt P11940); assay: MLLE binding blockers, Cy5 peptide tracer – biochemical, fluorescence polarization, Cy5-PAM2 peptide, secondary, miRNA deadenylation inhibitor project, dose response (AID 602260); type: functional; conditions: read-out: IC50_Mean
# T3 sequence (P11940 whole entry, the tested form may be a part): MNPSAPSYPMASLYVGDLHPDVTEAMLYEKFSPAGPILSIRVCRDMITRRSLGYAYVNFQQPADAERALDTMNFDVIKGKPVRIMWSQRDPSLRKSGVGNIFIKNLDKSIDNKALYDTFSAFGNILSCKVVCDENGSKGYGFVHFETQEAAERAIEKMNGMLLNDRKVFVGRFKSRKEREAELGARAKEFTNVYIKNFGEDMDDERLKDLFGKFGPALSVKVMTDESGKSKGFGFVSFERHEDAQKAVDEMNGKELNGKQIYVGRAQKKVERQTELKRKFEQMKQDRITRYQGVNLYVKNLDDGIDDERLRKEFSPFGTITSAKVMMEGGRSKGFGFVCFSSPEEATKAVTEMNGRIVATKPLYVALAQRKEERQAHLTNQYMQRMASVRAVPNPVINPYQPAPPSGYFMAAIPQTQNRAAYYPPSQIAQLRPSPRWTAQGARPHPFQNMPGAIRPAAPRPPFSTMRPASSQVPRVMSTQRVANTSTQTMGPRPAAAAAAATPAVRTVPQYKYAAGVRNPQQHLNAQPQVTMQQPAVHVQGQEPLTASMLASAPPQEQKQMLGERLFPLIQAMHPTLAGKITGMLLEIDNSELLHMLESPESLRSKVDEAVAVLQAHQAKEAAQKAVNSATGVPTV
# [7] = target: T3, Polyadenylate-binding protein 1; assay: MLLE domain peptide-binding blockers, IC50 – biochemical, fluorescence polarization, FITC-PAM2 peptide, dose response (AID 602259); type: functional; conditions: read-out: IC50_Mean
# [8] = target: T4, Corticotropin-releasing factor receptor 2/Corticotropin-releasing factor-binding protein (Homo sapiens, UniProt P24387+Q13324); assay: activators of CRF receptor 2 with binding protein – uHTS hits, confirmation (AID 602473); type: functional; conditions: read-out: EC50_Mean
# T4 sequence (Q13324 whole entry): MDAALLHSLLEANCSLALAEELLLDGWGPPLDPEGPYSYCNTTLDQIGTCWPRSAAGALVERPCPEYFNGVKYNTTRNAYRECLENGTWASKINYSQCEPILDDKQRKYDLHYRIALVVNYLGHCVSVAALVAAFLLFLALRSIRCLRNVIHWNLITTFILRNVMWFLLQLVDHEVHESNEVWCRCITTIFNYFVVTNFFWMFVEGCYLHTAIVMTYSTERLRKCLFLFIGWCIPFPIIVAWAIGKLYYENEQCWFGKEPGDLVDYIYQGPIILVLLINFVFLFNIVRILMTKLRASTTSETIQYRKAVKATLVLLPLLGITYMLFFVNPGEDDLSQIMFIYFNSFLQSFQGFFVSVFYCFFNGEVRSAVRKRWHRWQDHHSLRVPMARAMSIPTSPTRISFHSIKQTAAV
# T4 sequence (P24387 whole entry): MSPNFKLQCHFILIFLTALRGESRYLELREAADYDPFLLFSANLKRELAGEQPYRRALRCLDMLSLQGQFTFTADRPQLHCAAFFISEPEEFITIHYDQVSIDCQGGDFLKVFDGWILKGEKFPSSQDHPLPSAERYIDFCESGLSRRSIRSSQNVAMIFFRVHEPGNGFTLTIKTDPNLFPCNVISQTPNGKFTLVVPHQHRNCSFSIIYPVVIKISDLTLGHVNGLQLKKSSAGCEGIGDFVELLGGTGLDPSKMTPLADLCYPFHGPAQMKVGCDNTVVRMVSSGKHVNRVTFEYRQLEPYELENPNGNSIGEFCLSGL
# [9] = HGIII-sPLA2 enzyme inhibition potency – biochemical, QFRET, IC50, dose response (AID 743457);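 note: green fluorescence rise as the enzyme cleaves BODIPY PC-A2 in liposomes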
# HeLa = assay: ATP-based viability loss in HeLa cells – cell-based, CellTiter-Glo luminescence, cherry-pick samples, cytotoxicity control for MITF activator project, dose response (AID 540259); type: functional; conditions: Homo sapiens
# [10] = target: T5, RNA-binding protein pos-1 (Caenorhabditis elegans, UniProt G5EF15); assay: disruptors of C. elegans POS-1 RNA interaction – biochemical, fluorescence polarization, dose response (AID 1964);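 note: purified POS-1 fused to maltose binding protein made in E. coli; potency of compounds blocking POS-1 binding to fluorescent RNA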
# T5 sequence (G5EF15 whole entry): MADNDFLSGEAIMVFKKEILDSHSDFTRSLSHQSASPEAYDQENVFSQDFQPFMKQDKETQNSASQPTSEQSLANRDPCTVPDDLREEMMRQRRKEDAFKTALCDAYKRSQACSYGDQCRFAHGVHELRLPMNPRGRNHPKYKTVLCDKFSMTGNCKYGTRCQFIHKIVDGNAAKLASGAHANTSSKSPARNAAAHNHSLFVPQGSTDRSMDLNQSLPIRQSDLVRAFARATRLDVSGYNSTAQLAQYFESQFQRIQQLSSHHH
# [11] = target: T6, Zinc finger protein mex-5 (Caenorhabditis elegans, UniProt Q9XUB2); assay: potency of MEX-5 RNA-binding blockers – biochemical, C. elegans, fluorescence polarization, dose response (AID 1960)
# T6 sequence (Q9XUB2 whole entry): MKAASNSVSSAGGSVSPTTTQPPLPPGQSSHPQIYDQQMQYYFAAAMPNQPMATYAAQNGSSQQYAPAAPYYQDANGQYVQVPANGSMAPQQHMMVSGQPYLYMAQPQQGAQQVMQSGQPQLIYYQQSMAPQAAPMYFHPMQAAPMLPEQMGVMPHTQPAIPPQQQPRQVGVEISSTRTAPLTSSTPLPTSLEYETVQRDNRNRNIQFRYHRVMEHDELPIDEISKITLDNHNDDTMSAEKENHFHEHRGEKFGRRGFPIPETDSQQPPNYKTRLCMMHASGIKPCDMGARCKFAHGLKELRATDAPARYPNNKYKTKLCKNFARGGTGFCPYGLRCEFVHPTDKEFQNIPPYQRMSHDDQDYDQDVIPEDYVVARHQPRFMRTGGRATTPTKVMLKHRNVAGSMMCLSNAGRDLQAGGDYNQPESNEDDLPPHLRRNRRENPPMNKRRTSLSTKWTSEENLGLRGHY
# Genome polyprotein = Genome polyprotein (dengue virus type 2, UniProt P29990); assay: flavivirus cap methylation enzyme inhibition – biochemical, confirmation dose response, primary screen (AID 588689); type: functional
# Cytochrome P450 3A4 = Cytochrome P450 3A4 (Homo sapiens, UniProt P08684); conditions: Potency;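 note: confirmatory qHTS run detecting inhibitors and substrates of CYP3A4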
# Cytochrome P450 3A4, sequence (P08684 whole entry): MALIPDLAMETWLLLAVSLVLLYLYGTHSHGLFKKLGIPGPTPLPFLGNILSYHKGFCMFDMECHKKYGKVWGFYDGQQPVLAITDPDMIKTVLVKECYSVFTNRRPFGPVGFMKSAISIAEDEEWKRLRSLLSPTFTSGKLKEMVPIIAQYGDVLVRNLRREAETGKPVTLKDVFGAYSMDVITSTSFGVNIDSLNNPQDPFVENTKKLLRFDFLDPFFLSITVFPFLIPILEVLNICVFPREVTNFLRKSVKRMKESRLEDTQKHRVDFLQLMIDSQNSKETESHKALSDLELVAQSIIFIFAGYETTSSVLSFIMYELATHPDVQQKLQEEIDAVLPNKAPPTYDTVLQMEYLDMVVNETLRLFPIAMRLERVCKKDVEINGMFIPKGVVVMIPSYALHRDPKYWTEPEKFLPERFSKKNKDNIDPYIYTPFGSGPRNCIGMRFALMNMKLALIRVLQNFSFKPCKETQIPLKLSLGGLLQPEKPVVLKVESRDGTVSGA
# [12] = Luminescence Cell-Based Dose Confirmation HTS to Identify Activators of 5'UTR Stem-Loop Driven Alpha-Synuclein mRNA Translation in H4 Neuroglioblastoma Cells. [Related pubchem assays: 1829 (Project Summary), 1814 (Primary HTS)]; type: functional
# [13] = Luminescence Cell-Based Dose Response HTS to Identify Activators of Luciferase Translation or Activity in H4 […] Cells. [Related pubchem assays: 1829 (Project Summary), 1814 (Primary HTS)]; type: functional
# H4 = assay: Luminescence Cell-Based Dose Response HTS to Identify Activators of 5'UTR Stem-Loop Driven Prion Protein mRNA Translation in H4 Neuroglioblastoma Cells. [Related pubchem assays: 1829 (Project Summary), 1814 (Primary HTS)]; type: functional; conditions: Homo sapiens
# [14] = A549 cell cytotoxicity, dose response, cytotoxicity control, plate reader, cherry-pick, antagonist series (AID 743412); type: functional, cell-based
# [15] = target: T7, Calpain-2 catalytic subunit (Sus scrofa, UniProt P43367); assay: m-calpain protease blockers, concentration series – biochemical, fluorogenic peptide substrate, dose response (AID 1420); type: functional
# T7 sequence (P43367 whole entry): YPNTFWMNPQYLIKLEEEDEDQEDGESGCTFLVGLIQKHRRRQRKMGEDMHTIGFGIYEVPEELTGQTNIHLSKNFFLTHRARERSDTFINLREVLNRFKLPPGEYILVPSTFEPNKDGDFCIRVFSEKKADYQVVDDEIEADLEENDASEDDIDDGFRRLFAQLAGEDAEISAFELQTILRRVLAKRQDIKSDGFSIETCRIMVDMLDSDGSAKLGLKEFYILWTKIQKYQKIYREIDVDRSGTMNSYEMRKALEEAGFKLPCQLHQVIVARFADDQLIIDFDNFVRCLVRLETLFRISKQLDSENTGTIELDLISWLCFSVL
# Cytochrome P450 2C9 = Cytochrome P450 2C9 (Homo sapiens, UniProt P11712)
# T1 sequence (Q00975 whole entry): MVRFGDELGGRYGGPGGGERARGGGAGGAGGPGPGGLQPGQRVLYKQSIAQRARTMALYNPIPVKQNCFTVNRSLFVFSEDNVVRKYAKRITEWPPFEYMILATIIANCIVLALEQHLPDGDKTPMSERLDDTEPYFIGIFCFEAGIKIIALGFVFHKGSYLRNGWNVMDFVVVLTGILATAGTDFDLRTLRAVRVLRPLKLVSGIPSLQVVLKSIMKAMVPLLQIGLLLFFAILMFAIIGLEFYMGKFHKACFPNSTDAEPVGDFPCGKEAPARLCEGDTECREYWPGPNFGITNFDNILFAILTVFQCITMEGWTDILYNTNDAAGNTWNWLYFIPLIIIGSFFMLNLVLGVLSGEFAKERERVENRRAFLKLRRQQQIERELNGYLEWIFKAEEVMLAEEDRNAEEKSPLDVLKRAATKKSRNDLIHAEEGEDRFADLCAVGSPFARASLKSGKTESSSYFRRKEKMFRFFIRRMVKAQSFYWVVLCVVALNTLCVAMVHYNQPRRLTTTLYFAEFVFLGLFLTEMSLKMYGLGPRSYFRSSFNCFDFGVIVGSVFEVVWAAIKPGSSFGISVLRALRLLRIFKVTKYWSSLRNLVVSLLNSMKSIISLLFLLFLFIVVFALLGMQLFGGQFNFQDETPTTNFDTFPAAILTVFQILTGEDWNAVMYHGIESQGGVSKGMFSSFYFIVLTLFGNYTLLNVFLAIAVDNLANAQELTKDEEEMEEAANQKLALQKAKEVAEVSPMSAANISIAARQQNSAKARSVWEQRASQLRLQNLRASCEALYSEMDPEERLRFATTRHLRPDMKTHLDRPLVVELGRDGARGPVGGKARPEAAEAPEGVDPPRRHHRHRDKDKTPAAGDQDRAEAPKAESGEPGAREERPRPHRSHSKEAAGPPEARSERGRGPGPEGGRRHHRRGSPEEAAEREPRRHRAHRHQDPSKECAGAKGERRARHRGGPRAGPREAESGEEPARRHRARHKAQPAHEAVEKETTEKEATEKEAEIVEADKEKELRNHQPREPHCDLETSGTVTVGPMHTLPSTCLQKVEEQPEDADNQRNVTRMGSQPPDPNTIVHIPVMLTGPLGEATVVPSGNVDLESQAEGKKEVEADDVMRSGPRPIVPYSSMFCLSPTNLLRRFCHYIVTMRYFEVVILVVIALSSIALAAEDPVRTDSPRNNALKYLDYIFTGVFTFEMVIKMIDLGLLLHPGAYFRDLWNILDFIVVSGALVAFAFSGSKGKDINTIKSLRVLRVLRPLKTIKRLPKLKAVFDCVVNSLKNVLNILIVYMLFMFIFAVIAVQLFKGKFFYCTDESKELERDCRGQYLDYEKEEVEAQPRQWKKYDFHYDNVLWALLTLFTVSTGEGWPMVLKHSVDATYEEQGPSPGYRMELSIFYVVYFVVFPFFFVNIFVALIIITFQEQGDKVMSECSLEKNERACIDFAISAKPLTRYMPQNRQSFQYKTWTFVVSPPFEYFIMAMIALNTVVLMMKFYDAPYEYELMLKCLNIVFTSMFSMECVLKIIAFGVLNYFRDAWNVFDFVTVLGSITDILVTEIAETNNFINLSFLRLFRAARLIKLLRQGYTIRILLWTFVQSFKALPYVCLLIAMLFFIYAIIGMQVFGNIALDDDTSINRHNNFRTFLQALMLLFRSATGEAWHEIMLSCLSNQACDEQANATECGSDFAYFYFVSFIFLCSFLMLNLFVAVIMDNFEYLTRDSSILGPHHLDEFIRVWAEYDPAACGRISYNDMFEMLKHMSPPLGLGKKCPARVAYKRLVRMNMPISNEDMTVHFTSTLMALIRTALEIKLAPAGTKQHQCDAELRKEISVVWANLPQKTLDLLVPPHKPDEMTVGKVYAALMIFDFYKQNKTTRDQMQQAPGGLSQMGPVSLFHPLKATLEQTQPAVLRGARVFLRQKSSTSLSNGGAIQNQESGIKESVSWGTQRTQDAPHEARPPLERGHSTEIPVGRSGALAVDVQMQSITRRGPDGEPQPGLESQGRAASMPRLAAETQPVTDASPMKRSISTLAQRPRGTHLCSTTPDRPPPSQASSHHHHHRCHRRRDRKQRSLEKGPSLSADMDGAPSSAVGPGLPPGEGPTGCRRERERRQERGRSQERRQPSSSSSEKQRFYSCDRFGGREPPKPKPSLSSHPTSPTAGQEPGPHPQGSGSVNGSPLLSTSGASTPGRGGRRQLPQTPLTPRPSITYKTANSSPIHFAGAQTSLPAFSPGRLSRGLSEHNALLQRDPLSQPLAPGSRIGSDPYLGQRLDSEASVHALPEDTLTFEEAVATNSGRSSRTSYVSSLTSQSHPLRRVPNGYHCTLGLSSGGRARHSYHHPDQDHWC
# T1 sequence (Q02410 whole entry): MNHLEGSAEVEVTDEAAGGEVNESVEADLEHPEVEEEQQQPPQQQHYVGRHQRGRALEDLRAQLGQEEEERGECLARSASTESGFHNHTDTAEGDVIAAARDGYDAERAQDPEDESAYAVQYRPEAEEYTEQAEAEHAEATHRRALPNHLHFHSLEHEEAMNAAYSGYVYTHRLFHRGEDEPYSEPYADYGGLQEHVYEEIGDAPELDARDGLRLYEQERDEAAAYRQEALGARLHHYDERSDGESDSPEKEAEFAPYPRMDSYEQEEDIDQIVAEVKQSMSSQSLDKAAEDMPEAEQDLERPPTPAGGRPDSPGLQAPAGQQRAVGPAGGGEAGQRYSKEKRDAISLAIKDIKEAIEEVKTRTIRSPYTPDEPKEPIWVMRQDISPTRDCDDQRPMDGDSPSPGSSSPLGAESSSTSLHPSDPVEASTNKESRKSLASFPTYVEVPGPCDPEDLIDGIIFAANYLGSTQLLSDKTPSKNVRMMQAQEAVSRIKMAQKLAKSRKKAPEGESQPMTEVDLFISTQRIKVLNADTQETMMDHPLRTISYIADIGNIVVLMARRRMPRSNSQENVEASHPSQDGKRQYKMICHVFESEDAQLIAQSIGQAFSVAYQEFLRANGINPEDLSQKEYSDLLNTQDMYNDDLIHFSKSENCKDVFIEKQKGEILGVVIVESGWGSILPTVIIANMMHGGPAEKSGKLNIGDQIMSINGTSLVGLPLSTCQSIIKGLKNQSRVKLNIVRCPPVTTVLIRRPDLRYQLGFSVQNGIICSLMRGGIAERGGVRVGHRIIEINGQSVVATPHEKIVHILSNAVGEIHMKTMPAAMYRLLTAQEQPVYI
smiles,measurement,setting,value
COc1cc(NC(=O)c2ccc(F)cc2)ccc1NC(=O)c1cc2ccccc2o1,IC50,[1],4.02 µM (active)
same,IC50,[2],> 50 µM (inactive)
CCn1c(C)nc2cc(C(=O)NN=C(S)Nc3ccc(C)cc3)ccc21,IC50,Prothrombin,> 50 µM (not active)
same,IC50,Coagulation factor XII,> 50 µM (inactive)
CN(C[C@H]1N[C@@H](CO)[C@@H]1c1ccc(-c2cccc(F)c2)cc1)S(C)(=O)=O,AC50,Paired box protein Pax-8,10.3 µM (active)
same,AC50,[3],14.9 µM (active)
same,AC50,[4],23.7 µM (active)
O=c1c2ccccc2nc(N2CCN(c3ccccc3)CC2)n1Cc1ccccc1,EC50,[5],9.51 µM (active)
O=C(NC(=S)NNC(=O)c1ccccc1O)c1ccc([N+](=O)[O-])cc1,IC50,[6],> 66 µM (inactive)
same,IC50,[7],> 66 µM (inactive)
same,EC50,[8],> 53 µM (inactive)
same,IC50,[9],> 122 µM (inactive)
COc1ccc(Cl)cc1NC(=O)c1nnn(CC(=O)Nc2ccc(OC)c(OC)c2)c1N,IC50,[1],> 56.8 µM (not active)
same,IC50,[2],> 50 µM (inactive)
COc1cc(/C=N/O)ccc1OCc1ccccc1Cl,AC50,HeLa,40.7 µM (active)
COc1ccc2nc(NC(=O)/C=C/c3ccc4c(c3)OCO4)sc2c1,IC50,[1],19.5 µM (active)
same,IC50,[2],41.5 µM (active)
O=C(Cc1cccs1)Nc1nnc(CCc2ccccc2)s1,IC50,Prothrombin,25.4 µM (active)
CCCC(=O)n1nc(-c2cccnc2)nc1NCc1ccccc1,IC50,Prothrombin,0.00538 µM (active)
O=C(CSCc1ccc(Cl)cc1)NCc1ccc2c(c1)OCO2,EC50,[5],4.2 µM (active)
C[C@H](CO)N1C[C@H](C)[C@@H](CN(C)Cc2ccc(Oc3ccccc3)cc2)Oc2ccc(NS(=O)(=O)c3ccc(F)cc3)cc2CC1=O,AC50,Paired box protein Pax-8,6.47 µM (active)
same,AC50,[3],40 µM (active)
same,AC50,[4],63.3 µM (active)
CC1=NOC(=O)/C1=C\c1ccc2c(c1)OCO2,EC50,[10],> 300 µM (not active)
same,EC50,[11],> 300 µM (not active)
same,IC50,Genome polyprotein,7.17 µM (active)
CCc1nc2sc3c(=O)cc(O)[nH]c3c2cc1C,IC50,[1],> 56.8 µM (not active)
same,IC50,[2],24.8 µM (active)
O=[N+]([O-])c1ccc2c3c(cccc13)CC2,AC50,Cytochrome P450 3A4,31.6 µM (inconclusive)
C[C@]12CC[C@@H]3c4ccc(OC(=O)c5ccccc5)cc4CC[C@H]3[C@@H]1CCC2=O,AC50,Cytochrome P450 3A4,7.94 µM (inconclusive)
O=C(CNc1ccccc1OC(F)F)N1CCc2ccccc21,EC50,[12],0.103 µM (active)
same,EC50,[13],6 µM (active)
same,EC50,H4,4.45 µM (active)
same,AC50,HeLa,72.1 µM (active)
O=C1c2ccccc2NC(c2cccc(Cl)c2)N1N=C1CCCCCC1 (stereo not drawn),AC50,HeLa,200 µM (active)
COc1ccc2[nH]c3c(c2c1)CCN1C(=O)N([C@@H](C)C(=O)NCc2ccc(C)cc2)C(=O)[C@]31C,AC50,[14],> 52 µM (inactive)
CC1=C(C(=O)OCc2ccccc2)C(c2ccc(C3CCCCC3)cc2)NC(=O)N1CCCCCC(=O)O (stereo not drawn),AC50,Cytochrome P450 3A4,7.94 µM (inconclusive)
CCOC(=O)C(/C=N/c1cccc(C)c1C)=C(/O)OCC,IC50,Prothrombin,> 50 µM (not active)
same,IC50,[15],14 µM (not active)
same,AC50,Cytochrome P450 2C9,inconclusive
COC(=O)c1ccccc1NC(=O)C1CC(=O)N(c2ccc(F)cc2)C1 (stereo not drawn),IC50,Prothrombin,> 50 µM (not active)
Nc1c(Br)cc([N+](=O)[O-])cc1[N+](=O)[O-],AC50,Cytochrome P450 3A4,25.1 µM (inconclusive)
c1ccn(-c2ccc(-c3cc[nH]n3)cc2)c1,AC50,HeLa,90.9 µM (active)

# Source: ChEMBL document CHEMBL1201862, “PubChem BioAssay data set” (2004)
